Results on 21 compounds are retold here after patent US9573913B2, “Cathepsin cysteine protease inhibitors” (Merck Sharp & Dohme Corp., priority 2013, dated 2017).

One experiment has as its target T1, human cathepsin F (Homo sapiens, UniProt Q9UBX1).
T1 sequence (Q9UBX1 271-484): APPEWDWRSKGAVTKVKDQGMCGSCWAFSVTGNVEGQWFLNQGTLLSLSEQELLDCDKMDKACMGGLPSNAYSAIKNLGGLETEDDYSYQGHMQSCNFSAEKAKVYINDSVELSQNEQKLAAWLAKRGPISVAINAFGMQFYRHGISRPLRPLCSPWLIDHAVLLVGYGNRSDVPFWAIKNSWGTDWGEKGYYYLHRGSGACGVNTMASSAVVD
Kind of experiment: Cathepsin F assay (hCat F). Format: biochemical. The settings on record: Z-Phe-Arg-AMC substrate, pH 5.5, 15 min preincubation; read-out: hCat F (IP (nM)). The method in brief:
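AMC release from Z-Phe-Arg-AMC, added at 8 μM, was monitored fluorometrically (360/460 nm) for 20 min after 10 nM enzyme and compound had been preincubated 15 min at room temperature. Buffer: MES 50 mM pH 5.5, EDTA and DTT 2.5 mM each, 10% DMSO. Compound DMSO dilutions spanned 500–0.025 μM (3-fold). Dose-response fitting gave % inhibition.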

In another experiment the target is human cathepsin K (UniProt P43236). Nature of the experiment: Cathepsin K Assay (hrbCat K). Format: biochemical. The settings on record: Z-Leu-Arg-AMC substrate, pH 5.5, 15 min preincubation; read-out: hrbCat K (IP (nM)). The method, boiled down:
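Human cathepsin K (0.4 nM) was preincubated 15 min at room temperature with compound in 50 mM MES pH 5.5, 2.5 mM EDTA, 2.5 mM DTT and 10% DMSO. Inhibition was fitted to a dose-response model.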

For the compound `N#CC1(NC(=O)[C@@H]2CCC(F)(F)C[C@H]2c2nc(-c3ccc(F)cc3)sc2-c2ccc(N3CCS(=O)(=O)CC3)cc2)CC1` [Example 78, (1R,2R)-N-(1-cyanocyclopropyl)-2-(5-(4-(1,1-dioxidothiomorpho-lino)phenyl)-2-(4-fluorophenyl)thiazol-4-yl)-4,4-difluorocyclohexane-carboxamide], the IC50 was 3330 nM on human cathepsin F and 3.8 nM on human cathepsin K.

Turning to `N#Cc1ccccc1-c1nc([C@@H]2CCCC[C@H]2C(=O)NC2(C#N)CC2)c(-c2ccc(N3CCS(=O)(=O)CC3)cc2)s1` [Example 79, (1R,2R)-N-(1-cyanocyclopropyl)-2-(2-(2-cyanophenyl)-5-(4-(1,1-dioxidothiomorpho-lino)phenyl)thiazol-4-yl)cyclohexane-carboxamide], the results for the IC50 at human cathepsin F and on human cathepsin K were 5750 nM and 9.3 nM, respectively.

For the compound `N#CC1(NC(=O)[C@@H]2CCCC[C@H]2c2nc(-c3ncc(F)cn3)sc2-c2ccc(N3CCS(=O)(=O)CC3)cc2)CC1` [Example 80, (1R,2R)-N-(1-cyanocyclopropyl)-2-(5-(4-(1,1-dioxidothiomorpho-lino)phenyl)-2-(5-fluoropyrimidin-2-yl)thiazol-4-yl)cyclohexane-carboxamide], the values for the IC50 at human cathepsin F and at human cathepsin K were at least 10000 nM and 31.6 nM, respectively.

As for `COc1cnc(-c2nc([C@@H]3CCCC[C@H]3C(=O)NC3(C#N)CC3)c(-c3ccc(N4CCS(=O)(=O)CC4)cc3)s2)nc1` [Example 81, (1R,2R)-N-(1-cyanocyclopropyl)-2-(5-(4-(1,1-dioxidothiomorpho-lino)phenyl)-2-(5-methoxypyrimidin-2-yl)thiazol-4-yl)cyclohexane-carboxamide], the IC50 at human cathepsin F is at least 10000 nM; on human cathepsin K, 48.4 nM.

Consider `Cc1cnc(-c2nc([C@@H]3CCCC[C@H]3C(=O)NC3(C#N)CC3)c(-c3ccc(N4CCS(=O)(=O)CC4)cc3)s2)nc1` [Example 82, (1R,2R)-N-(1-cyanocyclopropyl)-2-(5-(4-(1,1-dioxidothiomorpho-lino)phenyl)-2-(5-methylpyrimidin-2-yl)thiazol-4-yl)cyclohexane-carboxamide], for which the figures for the IC50 on human cathepsin F and at human cathepsin K were at least 10000 nM and 46.4 nM, respectively.

As to `Cc1ccc(-c2nc([C@@H]3CCCC[C@H]3C(=O)NC3(C#N)CC3)c(-c3ccc(N4CCS(=O)(=O)CC4)cc3)s2)nn1` [Example 83, (1R,2R)-N-(1-cyanocyclopropyl)-2-(5-(4-(1,1-dioxidothiomorpho-lino)phenyl)-2-(6-methylpyridazin-3-yl)thiazol-4-yl)cyclohexane-carboxamide], the IC50 on human cathepsin F stood at 1110 nM; on human cathepsin K, 1.4 nM.

For the compound `N#Cc1ccc(-c2nc([C@@H]3CCCC[C@H]3C(=O)NC3(C#N)CC3)c(-c3ccc(N4CCS(=O)(=O)CC4)cc3)s2)cc1` [Example 84, (1R,2R)-N-(1-cyanocyclopropyl)-2-(2-(4-cyanophenyl)-5-(4-(1,1-dioxidothiomorpho-lino)phenyl)thiazol-4-yl)cyclohexane-carboxamide], the IC50 at human cathepsin F was 1410 nM; on human cathepsin K, 0.7 nM.

With `CS(=O)(=O)C1CN(c2ccc(-c3sc(-c4cncc(Cl)c4)nc3[C@@H]3CCCC[C@H]3C(=O)NC3(C#N)CC3)cc2)C1` [Example 85, (1R,2R)-2-(2-(5-chloropyridin-3-yl)-5-(4-(3-(methylsulfonyl)azetidin-1-yl)phenyl)thiazol-4-yl)-N-(1-cyanocyclopropyl) cyclohexanecarbox-amide], the results for the IC50 on human cathepsin F and on human cathepsin K were 1090 nM and 2.1 nM, respectively.

For `COc1ccc(-c2nc([C@@H]3CCCC[C@H]3C(=O)NC3(C#N)CC3)c(-c3ccc(N4CCS(=O)(=O)CC4)cc3)s2)cn1` [Example 86, (1R,2R)-N-(1-cyanocyclopropyl)-2-(5-(4-(1,1-dioxidothiomorpho-lino)phenyl)-2-(6-methoxypyridin-3-yl)thiazol-4-yl)cyclohexane-carboxamide], the values for the IC50 at human cathepsin F and on human cathepsin K were 3330 nM and 1.8 nM, respectively.

Regarding `N#Cc1cc(Cl)ccc1-c1nc([C@@H]2CCCC[C@H]2C(=O)NC2(C#N)CC2)c(-c2ccc(N3CCS(=O)(=O)CC3)cc2)s1` [Example 87, (1R,2R)-2-(2-(4-chloro-2-cyanophenyl)-5-(4-(1,1-dioxidothiomorpho-lino)phenyl)thiazol-4-yl)-N-(1-cyanocyclopropyl) cyclohexanecarbox-amide], the results for the IC50 at human cathepsin F and at human cathepsin K were 7780 nM and 6.7 nM, respectively.

For `N#CC1(NC(=O)[C@@H]2CCCC[C@H]2c2nc(-c3cncc(C(F)(F)F)c3)sc2-c2ccc(N3CCS(=O)(=O)CC3)cc2)CC1` [Example 88, (1R,2R)-N-(1-cyanocyclopropyl)-2-(5-(4-(1,1-dioxidothiomorpho-lino)phenyl)-2-(5-(trifluoromethyl)pyridin-3-yl)thiazol-4-yl)cyclohexane-carboxamide], the IC50 is 1400 nM at human cathepsin F and 1.5 nM on human cathepsin K.

On to `N#CC1(NC(=O)[C@@H]2CCCC[C@H]2c2nc(N3CCCCC3)sc2-c2ccc(N3CCS(=O)(=O)CC3)cc2)CC1` [Example 89, (1R,2R)-N-(1-cyanocyclopropyl)-2-(5-(4-(1,1-dioxidothiomorpho-lino)phenyl)-2-(piperidin-1-yl)thiazol-4-yl)cyclohexane-carboxamide], for which the values for the IC50 on human cathepsin F and on human cathepsin K were 1000 nM and 3 nM, respectively.

`N#CC1(NC(=O)[C@@H]2CCCC[C@H]2c2nc(-c3ccc(C(F)(F)F)cn3)sc2-c2ccc(N3CCS(=O)(=O)CC3)cc2)CC1` [Example 90, (1R,2R)-N-(1-cyanocyclopropyl)-2-(5-(4-(1,1-dioxidothiomorpho-lino)phenyl)-2-(5-(trifluoromethyl)pyridin-2-yl)thiazol-4-yl)cyclohexane-carboxamide]: the IC50 at human cathepsin F was 1280 nM; at human cathepsin K, 2.2 nM.

Take `Cc1nc(-c2nc([C@@H]3CCCC[C@H]3C(=O)NC3(C#N)CC3)c(-c3ccc(N4CCS(=O)(=O)CC4)cc3)s2)cs1` [Example 91, (1R,2R)-N-(1-cyanocyclopropyl)-2-(5-(4-(1,1-dioxidothiomorpho-lino)phenyl)-2′-methyl-[2,4′-bithiazol]-4-yl)cyclohexane-carboxamide]: the values for the IC50 at human cathepsin F and on human cathepsin K were 1110 nM and 3.3 nM, respectively.

Take `CC(C)(C)c1ccc(-c2nc([C@@H]3CCCC[C@H]3C(=O)NC3(C#N)CC3)c(-c3ccc(N4CCS(=O)(=O)CC4)cc3)s2)cn1` [Example 92, (1R,2R)-2-(2-(6-(tert-butyl)pyridin-3-yl)-5-(4-(1,1-dioxidothiomorpho-lino)phenyl)thiazol-4-yl)-N-(1-cyanocyclopropyl) cyclohexanecarbox-amide]: the values for the IC50 on human cathepsin F and on human cathepsin K were 3330 nM and 3 nM, respectively.

Consider `CC1(C)CC(c2nc([C@@H]3CCCC[C@H]3C(=O)NC3(C#N)CC3)c(-c3ccc(N4CCS(=O)(=O)CC4)cc3)s2)CC(C)(C)O1` [Example 93, (1R,2R)-N-(1-cyanocyclopropyl)-2-(5-(4-(1,1-dioxidothiomorpho-lino)phenyl)-2-(2,2,6,6-tetramethyltetrahydro-2H-pyran-4-yl)thiazol-4-yl)cyclohexane-carboxamide], for which the IC50 was at least 10000 nM on human cathepsin F and 14.1 nM at human cathepsin K.

In the case of `N#CC1(NC(=O)[C@@H]2CCCC[C@H]2c2nc(-c3c(F)cccc3F)sc2-c2ccc(N3CCS(=O)(=O)CC3)cc2)CC1` [Example 94, (1R,2R)-N-(1-cyanocyclopropyl)-2-(2-(2,6-difluorophenyl)-5-(4-(1,1-dioxidothiomorpho-lino)phenyl)thiazol-4-yl)cyclohexane-carboxamide], the IC50 is at least 10000 nM at human cathepsin F and 5.5 nM at human cathepsin K.

For the compound `Cc1cc(C#N)ccc1-c1nc([C@@H]2CCCC[C@H]2C(=O)NC2(C#N)CC2)c(-c2ccc(N3CCS(=O)(=O)CC3)cc2)s1` [Example 95, (1R,2R)-2-(2-(4-cyano-2-methylphenyl)-5-(4-(1,1-dioxidothiomorpho-lino)phenyl)thiazol-4-yl)-N-(1-cyanocyclopropyl) cyclohexanecarbox-amide], the IC50 at human cathepsin F was determined as 1120 nM; at human cathepsin K it was 3.6 nM.

For `N#CC1(NC(=O)[C@@H]2CCCC[C@H]2c2nc(-c3ccnc(C(F)(F)F)c3)sc2-c2ccc(N3CCS(=O)(=O)CC3)cc2)CC1` [Example 96, (1R,2R)-N-(1-cyanocyclopropyl)-2-(5-(4-(1,1-dioxidothiomorpho-lino)phenyl)-2-(2-(trifluoromethyl)pyridin-4-yl)thiazol-4-yl)cyclohexane-carboxamide], the IC50 on human cathepsin F is 1920 nM; at human cathepsin K it was 2.1 nM.

Take `COc1cncc(F)c1-c1nc([C@@H]2CCCC[C@H]2C(=O)NC2(C#N)CC2)c(-c2ccc(N3CCS(=O)(=O)CC3)cc2)s1` [Example 97, (1R,2R)-N-(1-cyanocyclopropyl)-2-(5-(4-(1,1-dioxidothiomorpho-lino)phenyl)-2-(3-fluoro-5-methoxypyridin-4-yl)thiazol-4-yl)cyclohexane-carboxamide]: the IC50 on human cathepsin F is 3080 nM; at human cathepsin K it was 2.8 nM.

Take `N#CC1(NC(=O)[C@@H]2CCCC[C@H]2c2nc(-c3cnc(C(F)(F)F)nc3)sc2-c2ccc(N3CCS(=O)(=O)CC3)cc2)CC1` [Example 98, (1R,2R)-N-(1-cyanocyclopropyl)-2-(5-(4-(1,1-dioxidothiomorpho-lino)phenyl)-2-(2-(trifluoromethyl)pyrimidin-5-yl)thiazol-4-yl)cyclohexane-carboxamide]: the IC50 on human cathepsin F was determined as 1600 nM; on human cathepsin K it was 0.6 nM.
